Reference: US6602852B1, “Basic peptides and pharmaceutical compositions containing same” (NST NeuroSurvival Technologies, Ltd., priority 1998, dated 2003)

Assays:
[1] = test system: thrombin generation on apoptotic HeLa cells
Protocol: One of the final steps of both intrinsic and extrinsic pathways of coagulation, is the generation of thrombin from prothrombin. Thrombin is the final protease generated in the sequence of coagulation reaction, and its activity entails conversion of fibrinogen to fibrin, that forms the clot. Generation of thrombin on the pro-coagulant surface of apoptotic cells was assayed (according to Bombeli T. et al., 1997, Blood 89(7), 2429-2442), by determining its activity, using the chromogenic substrate S-2366 (from Chromogenix, Sweden). Samples of pro-coagulant cells (HeLa cells treated with 500 μM of DA for 18 hours) were used for the assay.

[2] = test system: HeLa cells undergoing dopamine-induced apoptosis; details: 750 nM
Protocol: HeLa cells were plated on tissue culture plates at a density of 3×10^6 cells/10 cm dish, and grown in a DMEM medium containing 10% FCS, as described in A. The cells were then incubated at 37° C. overnight, and then the medium was replaced with a medium containing 2% FCS and 500 μM of dopamine. 18 hours later, the medium was aspirated and discarded, and 10 ml of Phosphate Buffered Saline pH 7.4 (PBS) were added to the culture dish. The cells which were detached from the culture dish into the PBS were collected. These cells represent advanced apoptotic cells. The remaining cells which were attached to the culture dish were trypsinized by the addition of 2 ml of trypsin for 2 minutes at 37° C., followed by the addition of 10 ml of a medium containing 10% of FCS. The cells were then washed with PBS containing 2% Bovine Serum Albumin (BSA), and resuspended in TBS containing 2% BSA (TBS-BSA). These cells were regarded as early apoptotic cells. […] Only non-treated cells that were attached to the culture dish were used as control cells for the FACS analysis.
A set of 3 different cell types was taken:
The incubation with the NST300 compounds or control compound was performed in a final volume of 100 μl TBS-BSA, 5 μg/ml of propidium iodide (PI) and 750 nM of the tested compound or the control compound.
PI is a red fluorescent dye that stains DNA. […] Only cells that are in advanced apoptotic stages, or cells that have already died by apoptosis or necrosis will be permeable to PI and will be stained with the dye. […] The cells were then washed in 500 μl of cold TBS-BSA and centrifugated as before. The cells were then suspended in 100 μl of TBS-BSA containing streptavidin conjugated to fluorescein (FITC). […] Thereafter, the cells were washed three times in TBS-BSA and were taken for FACS analysis.
The FACS analysis was performed on a Beckton-Dickinson cell sorter, using lysis II software. Excitation was at 488 nm and the emission or FITC detection was at 535 nm and for PI detection at 585 nm.

[3] = test system: clotting induced by negatively charged phospholipids in normal plasma; details: 0.5-50 μM; control clotting time 40 seconds
Protocol: The ability of NST300 compounds to inhibit coagulaton catalyzed by negatively—charged phospholipids was evaluated in a standard coagulation test of the Russell viper venom (RVV) assay. The RVV reagent directly activates factor x present in the plasma, thus promoting prothrombinase complex formation. This reagent is widely used as a standard phospholipid responsive clotting test. (Thiagarajan et al., Blood, 1986; 869-874).
The RVV reagent kit, containing RVV and negatively charged phospholipids, from Gradipore, Australia was used. The reactions were started by mixing 100 μl of RVV reagent, and 100 μl of quality control plasma collected from normal individuals (commercially available from Instrumentation Laboratory, Italy). Clotting time was determined as the time-point beyond which the continuously mixed reaction ingredients in the test tube, could no longer be aspirated with a pasteur pipette. Clotting time was measured independently by two separate researchers.

[4] = test system: Human Umbilical Vein Endothelial Cells (HUVEC); details: 500 ng of compound, 40 minutes
Protocol: HUVEC (CC-2517, obtained from Clonetics, Walkersville, Md.) were grown on tissue culture flasks in Endothelial cell medium (EGM-2 Bulletkit, CC 3162, Clonetics). Mid-confluent cultures were harvested using Trypsine/EDTA solution (CC-5012, Clonetics). The cells were rinsed twice with PBS containing 2% BSA and kept on ice. Samples of 10^6 cells were tested for binding.
The reactions were incubated at room temperature for 40 minutes and then 400 μl of TBS-BSA were added and cells were collected by centrifugation at 3000×g for 3 minutes. Cells were washed in 1 ml of TBS-BSA and centrifuged as before and then suspended in 100 μl of TBS-BSA containing streptavidin conjugated to flourescein (FITC) for detection of the bound biotinylated compound. […] Thereafter, 400 μl of TBS-BSA were added and cells were centrifuged and washed again with 1 ml of TBS-BSA as before and then resuspended in 400 μl of TSS and taken for FACS analysis.
The FACS analysis was performed on Beckton-Dickinson cell sorter, using lysis II software. Excitation was at 488 nm and emission for FITC detection was a 535 nm.
A dot plot analysis was done for each treatment.

Substance: Myristate-KKKKKRFSFKKSFKLSGFSFKKNKKK (SEQUENCE ID NO. 2)-(biotin) [NST302]
- delay factor of time needed to achieve 50% of thrombin activity ([1]; 25 μM): 2.25
- time needed to achieve 50% of thrombin activity ([1]; 25 μM): 4.5 min
- rate of thrombin activity and lag time for activating the reaction ([1]; 5-25 μM): delayed
- concentration at which inhibition of thrombin generation is observed already ([1]; 5-25 μM tested): 5 µM
- binding intensity (FITC mean value) compared with NST301 ([2]; apoptotic cells): higher binding intensity
- binding intensity: ratio of FITC mean value of apoptotic cells to that of control cells ([2]; early apoptotic cells, FIG. 3b): 9 fold
- increase of clotting time by a factor as compared to control [3]: 3.1
- cells FITC positive [4]: About 70%
